# Source: PMC12196235, “Enhancing the Pharmacological Properties of Triterpenes Through Acetylation: An Anticancer and Antioxidant Perspective” (Molecules, 2025)
# “And” between values parts separate entries of the source, which are not always exact repeats. Identical values can stand only once. Like-named read-outs stand apart in the source and are kept apart here.
# Tests used:
# [1] = test system: PC-3 (human prostate carcinoma); assay: MTT assay, PC-3; type: cell-based
# [2] = test system: SGC7901 (human gastric carcinoma); details: ref 48, cited from earlier work
# [3] = test system: A-549 (human lung carcinoma); details: ref 47; read-out: anticancer IC50 (A-549); cited from earlier work
# [4] = test system: RPMI-8226 (human multiple myeloma); details: ref 47; read-out: anticancer IC50 (RPMI-8226); cited from earlier work
# [5] = test system: P-388 (murine lymphocytic leukemia); details: ref 49, cited from earlier work
# [6] = test system: HT-29 (human colorectal adenocarcinoma); details: ref 47; read-out: anticancer IC50 (HT-29); cited from earlier work
# [7] = test system: CCRF-CEM, CEM (human T lymphoblastic leukemia); details: cited from earlier work
# [8] = test system: SKOV-3 (human ovarian carcinoma); assay: MTT assay, SKOV-3; type: cell-based
# [9] = test system: HeLa (human cervical epithelioid carcinoma); assay: MTT assay, HeLa; type: cell-based
# How it was run: (§1)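 MTT formazan read-out of viable cells after compound exposure at 37 °C. MCF-7 and A-549 grown in RPMI 1640, HeLa in DMEM, HDF normal fibroblasts in Fibroblast Basal Medium; each with 10% FBS, 1% L-glutamine and 1% penicillin/streptomycin.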
# C-6 = details: ref 47; read-out: anticancer IC50 (C-6); cited from earlier work
# [10] = test system: MCF-7 (human breast carcinoma); assay: MTT assay, MCF-7; type: cell-based
# How it was run: as §1
# [11] = test system: TE-671 (human rhabdomyosarcoma–medulloblastoma); details: ref 47; read-out: anticancer IC50 (TE-671); cited from earlier work
# [12] = test system: SFV (Semliki Forest virus); design: method as in PMID 19839605; details: ref 43; read-out: antiviral IC50 (SFV); cited from earlier work
# [13] = test system: HPCC (human cervical carcinoma); details: ref 47; read-out: anticancer IC50 (HPCC); cited from earlier work
# CUPRAC antioxidant assay = details: calculated from Trolox standard curve
# How it was run: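 The CUPRAC reagent was made from 7.5 mM neocuproine, 10 mM CuCl2 and ammonium acetate buffer pH 7.0; the DPPH reagent was a 0.2 mM solution. Both were read spectrophotometrically in plates. Activity is given as % inhibition and as Trolox equivalents from standard curves.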
compound,measurement,setting,value
"C=C(C)[C@@H]1CC[C@]2(CO)CC[C@]3(C)[C@H](CC[C@@H]4[C@@]5(C)CC[C@H](O)C(C)(C)[C@@H]5CC[C@]43C)[C@@H]12 [5a, betulin]",IC50,"[1]; Homo sapiens, MTT assay, PC-3, read-out: IC50 (±SD), PC-3",6.22 µM
same,"Selectivity index (SI), PC-3",[1]; IC50 HDF / IC50 PC-3,2.54
same,anticancer IC50 (SGC7901),[2],13 µg/mL
same,IC50,[2]; read-out: anticancer IC50 (SGC7901),29.4 µM
same,IC50,[3],7.4 µM
same,IC50,[4],6.4 µM
same,anticancer IC50 (P-388),[5],5.5 µg/mL
same,IC50,[5]; read-out: anticancer IC50 (P-388),12.4 µM
same,IC50,[6],4.3 µM
same,IC50,"[7]; ref 26, read-out: anticancer IC50 (CCRF-CEM, CEM)",250 µM
same,anticancer IC50 (CCRF/CEM),[7]; ref 49,10.9 µg/mL
same,IC50,"[7]; ref 49, read-out: anticancer IC50 (CCRF/CEM)",24.6 µM
same,IC50,"[8]; Homo sapiens, SK-OV-3, MTT assay, SKOV-3, read-out: IC50 (±SD), SKOV-3",6.95 µM
same,"Selectivity index (SI), SKOV-3",[8]; IC50 HDF / IC50 SKOV-3,2.27
same,IC50,"[9]; Homo sapiens, MTT assay, HeLa, read-out: IC50 (±SD), HeLa",18.3 µM
same,"Selectivity index (SI), HeLa",[9]; IC50 HDF / IC50 HeLa,0.86
same,IC50,C-6,5.9 µM
same,IC50,"[10]; Homo sapiens, MCF7, MTT assay, MCF-7, read-out: IC50 (±SD), MCF-7",18.1 µM
same,"Selectivity index (SI), MCF-7",[10]; IC50 HDF / IC50 MCF-7,0.87
same,IC50,[11],10.3 µM
same,IC50,[12],45.5 µM
same,IC50,[13],3.4 µM
same,"Trolox Equivalent, CUPRAC Assay",CUPRAC antioxidant assay,0.299 mg/mL and 0.299 ± 0.00663 mg/mL
